# Laboratory results from ChEMBL document CHEMBL4715750, “Synthesis and in vitro, ex-vivo and in vivo activity of hybrid compounds linking a potent ROS and RNS scavenger activity with diverse substrates addressed to pass across the blood-brain barrier” (Eur J Med Chem, 2016).
# The source made the active and inactive calls. The rule behind the calls is not given here.
# How the values were obtained:
# [1] = Cytotoxicity against human SH-SY5Y cells assessed as cell viability at 1.6 uM measured after 24 hrs by MTT assay relative to control; format: cell-based; details: read-out: Activity
# [2] = Cytotoxicity against human SH-SY5Y cells assessed as cell viability at 0.8 uM measured after 24 hrs by MTT assay relative to control; format: cell-based; details: read-out: Activity
# [3] = Cytotoxicity against human SH-SY5Y cells assessed as cell viability at 50 uM measured after 2 hrs by MTT assay relative to control; format: cell-based; details: read-out: Activity
# [4] = Cytotoxicity against human SH-SY5Y cells assessed as cell viability at 100 uM measured after 24 hrs by MTT assay relative to control; format: cell-based; details: read-out: Activity
# [5] = Cytotoxicity against human SH-SY5Y cells assessed as cell viability at 6.3 uM measured after 2 hrs by MTT assay relative to control; format: cell-based; details: read-out: Activity
# [6] = Cytotoxicity against human SH-SY5Y cells assessed as cell viability at 12.5 uM measured after 24 hrs by MTT assay relative to control; format: cell-based; details: read-out: Activity
# [7] = Cytotoxicity against human SH-SY5Y cells assessed as cell viability at 3.1 uM measured after 2 hrs by MTT assay relative to control; format: cell-based; details: read-out: Activity
# [8] = Permeability of the compound at pH 7.4 by PAMPA-BBB assay; format: ADME; details: read-out: permeability
# SH-SY5Y [9] = assay: Cytoprotective activity against DMSO-induced toxicity in human SH-SY5Y cells; format: functional, cell-based
# [10] = Cytotoxicity against human SH-SY5Y cells assessed as cell viability at 50 uM measured after 24 hrs by MTT assay relative to control; format: cell-based; details: read-out: Activity
# [11] = Cytotoxicity against human SH-SY5Y cells assessed as cell viability at 12.5 uM measured after 2 hrs by MTT assay relative to control; format: cell-based; details: read-out: Activity
# SH-SY5Y [12] = assay: Antioxidant activity in human SH-SY5Y cells assessed as inhibition of H2O2-induced DCFH oxidation measured after 1 hr by DCFH-DA dye based fluorescence assay; format: functional, cell-based
# [13] = Cytotoxicity against human SH-SY5Y cells assessed as cell viability at 1.6 uM measured after 2 hrs by MTT assay relative to control; format: cell-based; details: read-out: Activity
# [14] = Antioxidant activity assessed as DPPH radical scavenging activity incubated for 60 mins in absence of light; format: functional
# [15] = Cytotoxicity against human SH-SY5Y cells assessed as cell viability at 0.8 uM measured after 2 hrs by MTT assay relative to control; format: cell-based; details: read-out: Activity
# [16] = Cytotoxicity against human SH-SY5Y cells assessed as cell viability at 100 uM measured after 2 hrs by MTT assay relative to control; format: cell-based; details: read-out: Activity
# [17] = Cytotoxicity against human SH-SY5Y cells assessed as cell viability at 6.3 uM measured after 24 hrs by MTT assay relative to control; format: cell-based; details: read-out: Activity
# [18] = Cytotoxicity against human SH-SY5Y cells assessed as cell viability at 25 uM measured after 2 hrs by MTT assay relative to control; format: cell-based; details: read-out: Activity
# [19] = Cytotoxicity against human SH-SY5Y cells assessed as cell viability at 25 uM measured after 24 hrs by MTT assay relative to control; format: cell-based; details: read-out: Activity
# [20] = Cytotoxicity against human SH-SY5Y cells assessed as cell viability at 3.1 uM measured after 24 hrs by MTT assay relative to control; format: cell-based; details: read-out: Activity
# [21] = Drug concentration in Sprague-Dawley rat plasma at 0.2 mmol/Kg, ip measured after 1 hr by HPLC based fluorimetric analysis; format: ADME, organism-based
Compound,"viability at 24 h, 1.6 µM [1]","viability at 24 h, 0.8 µM [2]","viability at 2 h, 50 µM [3]","viability at 24 h, 100 µM [4]","viability at 2 h, 6.3 µM [5]","viability at 24 h, 12.5 µM [6]","viability at 2 h, 3.1 µM [7]",Papp [8],"viability at 24 h, 50 µM [10]","viability at 2 h, 12.5 µM [11]",Activity (SH-SY5Y [12]),IC50 (SH-SY5Y [12]),"viability at 2 h, 1.6 µM [13]",IC50 [14],"viability at 2 h, 0.8 µM [15]","viability at 2 h, 100 µM [16]","viability at 24 h, 6.3 µM [17]","viability at 2 h, 25 µM [18]","viability at 24 h, 25 µM [19]","viability at 24 h, 3.1 µM [20]",also measured
COc1cc2c(cc1O)CCC(C)(CC(=O)N[C@@H](C)C(=O)O)O2 (stereo not given in full),100%,100%,86.6%,68.5%,86.4%,100%,79.5%,0.06 ×10⁻⁶ cm/s,100%,85%,Dose-dependent effect,92.6 µM,86.9%,14.7 µM,87.6%,70.1%,94.6%,89.5%,100%,100%,Activity (SH-SY5Y [9]): Active
COc1cc2c(cc1O)CCC(C)(CC(=O)NCCc1ccc(O)c(O)c1)O2 (stereo not given),88.9%,100%,100%,58.4%,100%,84.2%,100%,0.2 ×10⁻⁶ cm/s,77.5%,100%,Dose-dependent effect,21.6 µM,100%,6.9 µM,100%,100%,98.4%,100%,79.1%,94.8%,
COc1cc2c(cc1O)CCC(C)(CC(=O)N[C@@H](Cc1ccc(O)cc1)C(=O)O)O2 (stereo not given in full),89.5%,79.7%,95.7%,67.5%,99.7%,81.6%,100%,,78.6%,92.5%,Dose-dependent effect,50 µM,94.5%,19.6 µM,92.2%,75.8%,83.3%,95.5%,82.7%,89.9%,concentration at 1 h [21]: 7 µM
COc1cc2c(cc1O)CCC(C)(CC(=O)O)O2 (stereo not given),100%,90.2%,100%,53.1%,100%,92%,100%,,61%,100%,Dose-dependent effect,32.3 µM,100%,8.4 µM,100%,79.9%,100%,100%,92.5%,100%,
COc1cc2c(cc1O)CCC(C)(CCNC(=O)/C=C(C)/C=C/C=C(C)/C=C/C1=C(C)CCCC1(C)C)O2 (stereo not given),99.1%,89.6%,97.4%,47.9%,90.5%,100%,97.3%,,91.7%,100%,Dose-dependent effect,> 300 µM,93.6%,16.2 µM,87.4%,57.7%,100%,100%,91.2%,100%,
COc1cc2c(cc1O)CCC(C)(CC(=O)N[C@@H](Cc1c[nH]c3ccccc13)C(=O)O)O2 (stereo not given in full),96%,94.6%,95.2%,65.9%,100%,91.2%,97.9%,1.18 ×10⁻⁶ cm/s,92.8%,100%,Dose-dependent effect,> 200 µM,97.2%,15.5 µM,94.8%,95.4%,94.9%,100%,90%,100%,Activity (SH-SY5Y [9]): Active
COc1cc2c(cc1O)CCC(C)(CC(=O)N[C@H](C(=O)O)C(C)C)O2 (stereo not given in full),82.1%,75.7%,100%,61%,99.7%,82.6%,98%,0.03 ×10⁻⁶ cm/s,79.3%,96.4%,Dose-dependent effect,43.8 µM,92.6%,17.3 µM,93.3%,85.9%,82%,96.6%,76.1%,79.1%,
COc1cc2c(cc1O)CCC(C)(CC(N)=O)O2 (stereo not given),100%,96.7%,74.9%,51.4%,80.8%,100%,84.8%,0.28 ×10⁻⁶ cm/s,99.2%,85.8%,Dose-dependent effect,71.2 µM,96.1%,10.5 µM,88.2%,54.7%,100%,83.6%,100%,100%,Activity (SH-SY5Y [9]): Active
COc1cc2c(cc1O)CCC(C)(CC(=O)N[C@@H](CCC(N)=O)C(=O)O)O2 (stereo not given in full),89.4%,92.8%,100%,58.2%,100%,84.8%,100%,,83.2%,100%,Dose-dependent effect,78 µM,97.1%,15 µM,92.8%,86.5%,84%,100%,91.8%,100%,
Cc1c(C)c2c(c(C)c1O)CCC(C)(C(=O)O)O2 (stereo not given) [TROLOX],87.6%,84.6%,92.4%,68%,97.4%,82.8%,97.6%,1.04 ×10⁻⁶ cm/s,81.9%,95%,Dose-dependent effect,82.3 µM,88.5%,15.7 µM,93.2%,86.5%,83.7%,99%,86.4%,79.6%,
COc1cc2c(cc1O)CCC(C)(CC(=O)N1CCC[C@H]1C(=O)O)O2 (stereo not given in full),93.2%,92.8%,100%,79.6%,98.8%,100%,100%,0.04 ×10⁻⁶ cm/s,100%,100%,Dose-dependent effect,41.4 µM,99.2%,19.1 µM,100%,78.8%,100%,100%,95.8%,100%,
